Like-named read-outs stand apart in the source and are kept apart here.
What was measured:
[1] = system: chronic lymphocytic leukemia (CLL) cells; experiment: CLL cell killing assay (annexin V / propidium iodide flow cytometry, 24 h); format: cell-based, human; details: primary CLL cells
Protocol: Biological Activity of 2-Amino Pateamine Derivatives Peripheral blood from the CLL patients were collected in heparin vacutainer tubes and centrifuged at 1500 rpm for 15 min to separate the plasma. The plasma (upper layer) was removed and saved for cell culture. The lower layer was diluted with phosphate-buffered saline (PBS), and the mononuclear cells were isolated by Ficoll density-gradient centrifugation. The isolated CLL cells were cultured at 1×10^7 cells/mL in RPMI 1640 medium containing 10% of fetal bovine serum, 10% autologous plasma, or 50% autologous plasma. Cell death in CLL lymphocytes was evaluated by flow cytometry analysis using annexin V and propidium iodide (PI) double staining. After incubation with increasing concentrations of PatA analogs for 24 hours, CLL cells (1×10^6 cells) were stained in 100 μL binding buffer with 5 μL annexin-Cy5, and incubated for 15 minutes in dark at room temperature. After staining, 300 μL binding buffer with 5 μL of 50 μg/mL propidium iodide were added to each tube. Samples were analyzed immediately by flow cytometer. Cells stained positive for either annexin V or PI were considered dead cells. The IC50 values of CLL killing were determined by non-linear fitting of the survival curve by the GraphPad Prism software.

[2] = system: P388 murine leukemia cells; details: read-out: IC50, cytotoxic activity against P388 murine leukemia cells; cited from earlier work
[3] = Plasma protein binding (PPB) assay; format: in vitro ADME; details: preliminary data
Protocol: In this example, a representative plasma protein binding (PPB) assay used to provide the plasma protein binding data is described.
The assay includes the following steps.
1. Frozen plasma was thawed and centrifuged at 1120 g for 10 min to remove any particulates. The plasma was decanted, the pH was measured and, if required, was adjusted to pH7.4 with lactic acid.
2. All compounds were prepared at 10 mM concentration in DMSO. The solutions were carefully vortexed to ensure the compounds dissolved. The 10 mM DMSO solutions were diluted to 500 μM MeOH solutions (5+95 μl).
3. In a 2 mL 96-well plate (DWP), 1000 μL of plasma was pipetted into each well in Columns 1-4.
4. 10 μL of the 500 μM compound solution was pipetted to 1000 μL of corresponding plasma. (The final DMSO=0.05%). The solution was capped and carefully vortexed for 5 min.
5. 200 μL of PBS buffer was added to each receiver well of the dialysis plate (buffer was added to the Receiver first).
6. The bottom of dialysis plate was capped and turned over to the orange donor side (top) of dialysis plate.
7. The orange donor side of the dialysis plate was uncapped and 200 μL of the […] drug/plasma samples were transferred from the 2 ml 96-DWP to the corresponding donor wells in the dialysis plate. […]
23. The samples in the Receiver Plate, Donor Plate, and Recovery Plate were analyzed by LC/MS/MS […]

[4] = system: models of human leukemia and melanoma; details: mice; cited from earlier work
[5] = CLL cell, RPMI 1640 with 10% autologous (human) plasma, read-out: IC50 CLL Assay, 10% plasma
[6] = Homo sapiens, CLL cell, RPMI 1640 with 10% fetal bovine serum, read-out: IC50 CLL Assay, 10% FBS
[7] = CLL cell, RPMI 1640 with 50% autologous (human) plasma, read-out: IC50 CLL Assay, 50% plasma
[8] = RPMI 1640 with 10% autologous (human) plasma, read-out: IC50 CLL Assay, 10% plasma
[9] = RPMI 1640 with 10% fetal bovine serum, read-out: IC50 CLL Assay, 10% FBS

Question: With C/C(Br)=C\[C@@H]1Cc2nc(cs2)CCC[C@H](NC(=O)C(F)(F)F)C(=O)O[C@@H](C)C/C(C)=C/C=C\C(=O)O1 [MZ569b, N-((1^2Z,3S,6Z,8E,11S,14S)-3-((E)-2-Bromoprop-1-en-1-yl)-9,11-dimethyl-5,13-dioxo-4,12-dioxa-1 (2,4)-thiazolacycloheptadecaphane-6,8-dien-1^4-yl)-2,2,2-trifluoroacetamide] as the compound, how does the IC50 [1, 5] read?
Answer: Its IC50 is > 10000 nM.

Question: What about the IC50 [1, 6] of the same compound?
Answer: The IC50 was > 10000 nM.

Question: For CC(/C=C/C(C)=C/[C@@H]1Cc2nc(cs2)CCC[C@H](N)C(=O)O[C@@H](C)C/C(C)=C/C=C\C(=O)O1)=C\CN(C)C [MZ577, (12Z,3S,6Z,8E,11S,14S)-14-Amino-3-((1E,3E,5E)-7-(dimethylamino)-2,5-dimethylhepta-1,3,5-trien-1-yl)-9,11-dimethyl-4,12-dioxa-1(2,4)-thiazolacycloheptadecaphane-6,8-diene-5,13-dione], which IC50 [1, 5] is on record?
Answer: The IC50 was 6360 nM.

Question: What about the IC50 [1, 6] of the same compound?
Answer: Its IC50 is 3010 nM.

Question: Which results are given for CC(/C=C/C(C)=C/[C@@H]1Cc2nc(cs2)[C@@H](C)C[C@@H](N)CC(=O)O[C@@H](C)C/C(C)=C/C=C\C(=O)O1)=C\CN(C)C [PatA, Pateamine A]?
Answer: IC50 [1, 5]: 160 nM; IC50 [1, 7]: 470 nM; IC50 [1, 6]: 150 nM; IC50 [2]: 0.27 nM

Question: Which IC50 [1, 8] does the source give for CC(C=CC(C)=CC1Cc2nc(cs2)CCCC(NC(=O)OC(C)(C)C(Cl)(Cl)Cl)C(=O)OC(C)CC(C)=CC=CC(=O)O1)=CCN(C)C [MZ576, 1,1,1-Trichloro-2-methylpropan-2-yl((1^2Z,3S,6Z,8E,11 S,14S)-3-((1E,3E,5E)-7-(dimethylamino)-2,5-dimethylhepta-1,3,5-trien-1-yl)-9,11-dimethyl-5,13-dioxo-4,12-dioxa-1 (2,4)-thiazolacycloheptadecaphane-6,8-dien-14-yl)carbamate] here?
Answer: Its IC50 is 6690 nM.

Question: What about the IC50 [1, 9] of the same compound?
Answer: The IC50 was 3200 nM.

Question: For CC(/C=C/C(C)=C/[C@@H]1Cc2nc(cs2)CCCCC(=O)O[C@@H](C)C/C(C)=C/C=C\C(=O)O1)=C\CN(C)C [DMDA Pat A, Des-methyl, des-amino pateamine A, reference compound], which IC50 [1, 5] is on record?
Answer: Its IC50 is 5370 nM.

Question: What about the IC50 [1, 7] of the same compound?
Answer: Its IC50 is > 10000 nM.

Question: What about the IC50 [1, 6] of the same compound?
Answer: The IC50 was 710 nM.

Question: What about the “plasma protein binding in human plasma” value [3] of the same compound?
Answer: Its value is “highly protein bound”.

Question: And the “activity in xenograft models” value [4]?
Answer: The value was “significant tumor reduction”.

Question: With CC(/C=C/C(C)=C/[C@@H]1Cc2nc(cs2)CCC[C@H](NS(C)(=O)=O)C(=O)O[C@@H](C)C/C(C)=C/C=C\C(=O)O1)=C\CN(C)C [MZ624, N-((1^2Z,3S,6Z,8E,11 S,14S)-3-((1E,3E,5E)-7-(dimethylamino)-2,5-dimethylhepta-1,3,5-trien-1-yl)-9,11-dimethyl-5,13-dioxo-4,12-dioxa-1(2,4)-thiazolacycloheptadecaphane-6,8-dien-14-yl) methanesulfonamide] as the compound, how does the IC50 [1, 5] read?
Answer: Its IC50 is 650 nM.

Question: And the IC50 [1, 6]?
Answer: Its IC50 is 370 nM.

Question: Which IC50 [1, 5] does the source give for CC(/C=C/C(C)=C/[C@@H]1Cc2nc(cs2)CCC[C@H](NC(=O)OC(C)(C)C)C(=O)O[C@@H](C)C/C(C)=C/C=C\C(=O)O1)=C\CN(C)C [MZ578, tert-Butyl ((1^2Z,3S,6Z,8E,11S,14S)-3-((1E,3E,5E)-7-(dimethylamino)-2,5-dimethylhepta-1,3,5-trien-1-yl)-9,11-dimethyl-5,13-dioxo-4,12-dioxa-1(2,4)-thiazolacycloheptadecaphane-6,8-dien-14-yl) carbamate] here?
Answer: The IC50 was 2010 nM.

Question: What about the IC50 [1, 7] of the same compound?
Answer: The IC50 was 8120 nM.

Question: What about the IC50 [1, 6] of the same compound?
Answer: Its IC50 is 830 nM.

Question: With CC(=O)N[C@@H]1CCCc2csc(n2)C[C@@H](/C=C(C)/C=C/C(C)=C/CN(C)C)OC(=O)/C=C\C=C(/C)C[C@H](C)OC1=O [MZ757, N-((1^2Z,3S,6Z,8E,11S,14R)-3-((1E,3E,5E)-7-(dimethylamino)-2,5-dimethylhepta-1,3,5-trien-1-yl)-9,11-dimethyl-5,13-dioxo-4,12-dioxa-1(2,4)-thiazolacycloheptadecaphane-6,8-dien-14-yl) acetamide] as the compound, how does the IC50 [1, 5] read?
Answer: Its IC50 is 450 nM.

Question: What about the IC50 [1, 6] of the same compound?
Answer: Its IC50 is < 50 nM.

Question: What does the source list for C/C(Br)=C\[C@@H]1Cc2nc(cs2)CCC[C@H](NC(=O)OC(C)(C)C)C(=O)O[C@@H](C)C/C(C)=C/C=C\C(=O)O1 [MZ554, tert-Butyl-((1^2Z,3S,6Z,8E,11S,14S)-3-((E)-2-bromoprop-1-en-1-yl)-9,11-dimethyl-5,13-dioxo-4,12-dioxa-1(2,4)-thiazolacycloheptadecaphane-6,8-dien-14-yl)carbamate]?
Answer: IC50 [1, 5]: > 10000 nM; IC50 [1, 6]: > 10000 nM

Question: With CC(=O)N[C@H]1CCCc2csc(n2)C[C@@H](/C=C(C)/C=C/C(C)=C/CN(C)C)OC(=O)/C=C\C=C(/C)C[C@H](C)OC1=O [MZ623, N-((1^2Z,3S,6Z,8E,11S,14S)-3-((1E,3E,5E)-7-(dimethylamino)-2,5-dimethylhepta-1,3,5-trien-1-yl)-9,11-dimethyl-5,13-dioxo-4,12-dioxa-1(2,4)-thiazolacycloheptadecaphane-6,8-dien-14-yl) acetamide] as the compound, how does the IC50 [1, 5] read?
Answer: Its IC50 is 460 nM.

Question: What about the IC50 [1, 6] of the same compound?
Answer: The IC50 was 310 nM.

Question: Which results are given for “1,1,1-Trichloro-2-methylpropan-2-yl ((1^2Z,3S,6Z,8E,11S,14R)-3-((1E,3E,5E)-7-(dimethylamino)-2,5-dimethylhepta-1,3,5-trien-1-yl)-9,11-dimethyl-5,13-dioxo-4,12-dioxa-1 (2,4)-thiazol acycloheptadecaphane-6,8-dien-14-yl)carbamate [MZ756]”?
Answer: IC50 [1, 8]: 5610 nM; IC50 [1, 9]: 1890 nM

Question: With CC(/C=C/C(C)=C/[C@@H]1Cc2nc(cs2)CCC[C@H](NC(=O)C(F)(F)F)C(=O)O[C@@H](C)C/C(C)=C/C=C\C(=O)O1)=C\CN(C)C [MZ579, N-((1^2Z,3S,6Z,8E,11S,14S)-3-((1E,3E,5E)-7-(dimethylamino)-2,5-dimethylhepta-1,3,5-trien-1-yl)-9,11-dimethyl-5,13-dioxo-4,12-dioxa-1(2,4)-thiazolacycloheptadecaphane-6,8-dien-14-yl)-2,2,2-trifluoroacetamide] as the compound, how does the IC50 [1, 5] read?
Answer: Its IC50 is 1790 nM.

Question: And the IC50 [1, 7]?
Answer: Its IC50 is 7180 nM.

Question: And the IC50 [1, 6]?
Answer: The IC50 was 550 nM.

Question: Which IC50 [1, 8] does the source give for CC(Br)=CC1Cc2nc(cs2)CCCC(NC(=O)OC(C)(C)C(Cl)(Cl)Cl)C(=O)OC(C)CC(C)=CC=CC(=O)O1 [MZ569a, 1,1,1-Trichloro-2-methylpropan-2-yl ((1^2Z,3S,6Z,8E,11S,14S)-3-((E)-2-bromoprop-1-en-1-yl)-9,11-dimethyl-5,13-dioxo-4,12-dioxa-1(2,4)-thiazolacycloheptadecaphane-6,8-dien-1^4-yl) carbamate] here?
Answer: The IC50 was > 10000 nM.

Question: And the IC50 [1, 9]?
Answer: Its IC50 is > 10000 nM.

Reference: US10870662B2, “Alpha-amino pateamine A derivatives and methods for treating chronic lymphocytic leukemia” (The Texas A&M University System, priority 2015, dated 2020)
